Data as given in patent US11717502B2, “Blood flow improver” (WAKUNAGA PHARMACEUTICAL CO., LTD., priority 2017, dated 2023).

Assays:
[1] = system: water immersion stressed rats; assay: Action of S1PC against decrease in tail skin blood flow in water immersion stressed rats (Test Example 1); assay type: in vivo, male Wistar rats
Protocol: Action of S1PC Against Decrease in Tail Skin Blood Flow in Water Immersion Stressed Rate
(§1) Eight-week-old male Wistar rats purchased from Japan SLC, Inc. (Hamamatsu City) were grouped by nines, and preliminarily bred for two weeks. During preliminary breeding, handling was performed on the rats, and the rats were bred in a constant environment at a temperature of 23±1° C., a humidity of 50±10%, and a light/dark cycle of 12 hours (light period: 7 to 19 o'clock), and freely fed with artificial diet (CE-2, from CLEA Japan, inc.) and sterilized tap water.
The administration was performed by forced oral administration using a disposable feeding needle, and the fluid volume to be administered was 10 mL per kilogram of body weight of rat. As a sample to be administered, approximately 15 mg of S1PC (a cis/trans mixture) manufactured in Production Example 2 was precisely weighed, and dissolved in 15 mL of purified water. This solution was used as a stock solution. The solution was properly diluted to give 6.5 mg/kg (body weight of rat) of dosage and the diluted solution was orally administered to each rat a single time. To each rat of a control group, a solvent (purified water) was orally administered in the same manner as described above.
(§2) The rats were allowed to stand still in a room conditioned at a temperature of 20±0.5° C. for 30 minutes or longer, and attached with a probe for blood flow measurement using a binding tape at a position 5 cm away from the base of tail under isoflurane anesthesia. The blood flow was measured for 5 minutes using a laser tissue blood flowmeter (FLO-C1, from Omegawave Inc.). Average blood flow for 3 minutes during which the stable blood flow was shown was determined as the tail skin blood flow of the individual. The blood flow before water immersion was measured, and then S1PC or purified water was orally administered to the rats. Two hours after the administration, the rats were immersed up to the xiphoid and below in water at 15° C. for 10 minutes, using a stainless-steel restraint cage. The tail skin blood flow after the water immersion stress was measured one hour after the end of water immersion stress.
Measured values were given as average±standard error.
The t-test was used for examination.

[2] = system: water immersion stressed rats; assay: Actions against depressed tail subcutaneous blood flow in water immersion stressed rats, compared between S1PC and SAC (Test Example 2); assay type: in vivo, male Wistar rats; conditions: for Effect of improving the tail skin blood flow with respect to the control group: 6.5 mg/kg single oral administration two hours before water immersion stress, one hour after end of stress, Bonferroni correction
Protocol: Actions against Depressed Tail Subcutaneous Blood Flow in Water Immersion Stressed Rats, Compared between S1PC and SAC
as §1, with “Seven-week-old” for “Eight-week-old”, “twelves,” for “nines,”
The administration was performed by forced oral administration using a disposable feeding needle, and the fluid volume to be administered was 10 mL per kilogram of body weight of rat. As a sample to be administered, approximately 15 mg each of S1PC (a cis/trans mixture) manufactured in Production Example 2 and SAC were precisely weighed, and dissolved in 15 mL of purified water. These solutions were used as a stock solution. The solutions were properly diluted to give 6.5 mg/kg (body weight of rat) of dosage and the diluted solution was orally administered to each rat a single time. […]
as §2, with “individuals.” for “individual.”, “S1PC, SAC” for “S1PC”, “Two hours after the administration, the rats were immersed up to the xiphoid and below in water at 15° C. for 10 minutes, using a stainless-steel restraint cage.” left out
Measured values were given […] average±standard error. […]

Row | Compound | Effect of improving the tail skin blood flow with respect to the control group ([1]; 6.5 mg/kg single oral administration two hours before water immersion stress, t-test) | Degree of decrease in tail skin blood flow due to water immersion stress ([1]; 6.5 mg/kg single oral administration two hours before water immersion stress, versus control group) | Tail skin blood flow, one hour after end of water immersion stress ([1]; 6.5 mg/kg single oral dose two hours before water immersion (15° C., 10 minutes), average ± standard error) [mL/min/100 g] | Tail skin blood flow, before water immersion stress ([1]; baseline before oral administration, average ± standard error, laser tissue blood flowmeter) [mL/min/100 g] | Effect of improving the tail skin blood flow with respect to the control group [2] | Tail skin blood flow, S1PC group compared with SAC group ([2]; 6.5 mg/kg single oral dose each, one hour after end of water immersion stress, p<0.01)
1 | CC=CSC[C@H](N)C(=O)O [S1PC, S-1-propenylcysteine] | significant effect of improving the tail skin blood flow | smaller as compared with the control group | 2.21 ± 0.15 | 2.76 ± 0.15 | showed a significant effect of improving the tail skin blood flow | significantly higher value of tail skin blood flow, as compared with the SAC group
2 | C=CCSC[C@H](N)C(=O)O [SAC, S-allylcysteine, reference compound] | – | – | – | – | did not show a significant effect of improving the tail skin blood flow | –
